Several values for one entry are separate records, joined by “and”; a condition that tells them apart may be missing. Equal entries are not always repeated. Inconclusive results are not listed.
Test system: nude mice, HT29 intrarenal xenograft, tumor weight T/C
Assay: NCI In Vivo Anticancer Drug Screen. Data for tumor model HT29;CX-1 Human Adenocarcinoma (MER+) (intrarenal inoculation) in NU/NU Swiss (nude) mice
Conditions: endpoint: mean tumor weight change, higher = larger tumour
Summary of the method: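 Tumor-bearing mice received test compound or vehicle, and tumor size or survival was recorded. Values are the treated-group measurement divided by the vehicle-treated control measurement.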

[1] = dose: 50.0 mg/kg/injection, schedule: Q04DX004 (sc), vehicle: Klucel (hydroxypropylcellulose) (HPC)
[2] = dose: 100.0 mg/kg/injection, schedule: Q04DX004 (sc), vehicle: Klucel (hydroxypropylcellulose) (HPC)
[3] = dose: 75.0 mg/kg/injection, schedule: Q04DX004 (sc), vehicle: saline
[4] = dose: 150.0 mg/kg/injection, schedule: Q04DX004 (sc), vehicle: saline
[5] = dose: 300.0 mg/kg/injection, schedule: Q04DX004 (sc), vehicle: saline
[6] = dose: 25.0 mg/kg/injection, schedule: Q01DX010 (sc), vehicle: saline
[7] = dose: 100.0 mg/kg/injection, schedule: Q01DX010 (sc), vehicle: saline
[8] = dose: 300.0 mg/kg/injection, schedule: Q04DX004 (sc), vehicle: Klucel (hydroxypropylcellulose) (HPC)
[9] = dose: 600.0 mg/kg/injection, schedule: Q04DX004 (sc), vehicle: Klucel (hydroxypropylcellulose) (HPC)

CC(=O)O[C@@H]1CO[C@H]2O[C@H]3[C@@H](C(C=O)=C[C@H](O)[C@@H]4C5=C(C(C)C)CC[C@]5(C)CC[C@@]34C)[C@@]2(O)C1=O
T/C (dose: 12.5 mg/kg/injection, schedule: Q04DX004 (sc), vehicle: Klucel (hydroxypropylcellulose) (HPC)): 110 % of control
T/C (dose: 25.0 mg/kg/injection, schedule: Q04DX004 (sc), vehicle: Klucel (hydroxypropylcellulose) (HPC)): 83 % of control
T/C [1]: 76 % of control
T/C [2]: 58 % of control

C1CNCOC1
T/C [3]: 123 % of control
T/C [4]: 158 % of control
T/C [5]: 91 % of control
T/C (dose: 600.0 mg/kg/injection, schedule: Q04DX004 (sc), vehicle: saline): 75 % of control

CC(C)(C)N1CC1CNC(=O)C(=O)NCC1CN1C(C)(C)C (centres undefined)
T/C (dose: 25.0 mg/kg/injection, schedule: Q04DX004 (sc), vehicle: saline with Tween-80): 109 % of control

CNC(=O)OCc1c(COC(=O)NC)c(C)n(-c2ccc(OC)cc2)c1C
T/C [1]: 69 % of control
T/C [2]: 90 % of control
T/C (dose: 200.0 mg/kg/injection, schedule: Q04DX004 (sc), vehicle: Klucel (hydroxypropylcellulose) (HPC)): 46 % of control
T/C (dose: 400.0 mg/kg/injection, schedule: Q04DX004 (sc), vehicle: Klucel (hydroxypropylcellulose) (HPC)): 36 % of control

C=CC(=O)NCNC(=O)C=C
T/C [6]: 217 % of control and 220 % of control
T/C [7]: 213 % of control

C1CN2CN3CCN(CN1C3)C2
T/C [7]: 93 % of control
T/C (dose: 200.0 mg/kg/injection, schedule: Q01DX010 (sc), vehicle: saline): 95 % of control

CC(CN1CC(=O)NC(=O)C1)N1CC(=O)NC(=O)C1 (centres undefined)
T/C (dose: 150.0 mg/kg/injection, schedule: Q04DX004 (sc), vehicle: Klucel (hydroxypropylcellulose) (HPC)): 85 % of control
T/C [8]: 40 % of control
T/C [9]: 46 % of control

COc1c(CNC(=O)CCl)cc2[nH]c(C)cc2c1CNC(=O)CCl
T/C [8]: 192 % of control
T/C [9]: 124 % of control

C=C1C(=O)O[C@@H]2[C@H](O)[C@@H](C)[C@@H]3C=CC(=O)[C@@]3(C)[C@H](OC(=O)C=C(C)C)[C@H]12
T/C (dose: 9.38 mg/kg/injection, schedule: Q04DX004 (sc), vehicle: saline with Tween-80): 93 % of control
T/C (dose: 18.75 mg/kg/injection, schedule: Q04DX004 (sc), vehicle: saline with Tween-80): 121 % of control
T/C (dose: 37.5 mg/kg/injection, schedule: Q04DX004 (sc), vehicle: saline with Tween-80): 87 % of control

Nc1cc2[nH]cnc2c(=O)[nH]1
T/C [6]: 62 % of control
T/C (dose: 50.0 mg/kg/injection, schedule: Q01DX010 (sc), vehicle: saline): 112 % of control

C1CC[N-]CC1.C1CC[N-]CC1.C1CC[N-]CC1.[Cl][Rh]([Cl])[Cl]
T/C [4]: 36 % of control
T/C [5]: 25 % of control

ClCCCN1CCN(CCCCl)CC1
T/C (dose: 62.5 mg/kg/injection, schedule: Q04DX004 (sc), vehicle: distilled water + alcohol): 52 % of control
T/C (dose: 125.0 mg/kg/injection, schedule: Q04DX004 (sc), vehicle: distilled water + alcohol): 17 % of control

O=C(O)C(O)C(O)C1[O][Sb][O]C1C(=O)O (centres undefined)
T/C (dose: 37.5 mg/kg/injection, schedule: Q04DX004 (sc), vehicle: saline): 100 % of control
T/C [3]: 73 % of control
T/C [4]: 93 % of control

CCC(C(=O)O)C(=O)O.[NH-]CC1CCCC[N-]1.[Pt+2]
T/C (dose: 50.0 mg/kg/injection, schedule: Q04DX004 (sc), vehicle: saline): 113 % of control
T/C (dose: 100.0 mg/kg/injection, schedule: Q04DX004 (sc), vehicle: saline): 96 % of control
T/C (dose: 200.0 mg/kg/injection, schedule: Q04DX004 (sc), vehicle: saline): 79 % of control
T/C (dose: 400.0 mg/kg/injection, schedule: Q04DX004 (sc), vehicle: saline): 59 % of control

CCSC(=O)N1c2ccc(OC)cc2C=CC1C#N (centres undefined)
T/C (dose: 600.0 mg/kg/injection, schedule: Q04DX004 (sc), vehicle: saline with Tween-80): 93 % of control
T/C (dose: 1200.0 mg/kg/injection, schedule: Q04DX004 (sc), vehicle: saline with Tween-80): 84 % of control
T/C (dose: 2400.0 mg/kg/injection, schedule: Q04DX004 (sc), vehicle: saline with Tween-80): 53 % of control

CCCCCCCCCCCC(=O)NC1CC(O[C@H]2C[C@](O)(C(=O)CO)Cc3c(O)c4c(c(O)c32)C(=O)c2c(OC)cccc2C4=O)OC(C)C1O (some centres undefined)
T/C (dose: 100.0 mg/kg/injection, schedule: Q01DX010 (sc), vehicle: water): 105 % of control
T/C (dose: 200.0 mg/kg/injection, schedule: Q01DX010 (sc), vehicle: water): 68 % of control
T/C (dose: 400.0 mg/kg/injection, schedule: Q01DX010 (sc), vehicle: water): 26 % of control
